# In US20080274121A1, “Inhibition of Angiogenesis by Mithramycin” (priority 2007, published 2008):
# How the values were obtained:
# Sp1, VEGF, CD31 (MVD) = assay: Gene expression and microvessel formation in PANC-1 tumor tissues; assay type: in vivo, nude mice
# Method: FIG. 13. Analysis of gene expression and microvessel formation in tumor tissues. The tumor tissues described in FIG. 2 were collected and processed as described in Materials and Methods. A, total protein lysates were harvested from tumor tissues, and the level of protein expression was determined using Western blot analysis. Equal protein-sample loading was monitored by probing the same membrane filter with an anti-β-actin antibody. NS, nonspecific. B, the levels of Sp1 and VEGF expression were quantitated and expressed as fold change. C, MVD was quantitated according to CD31 staining. D, immunohistochemical staining was performed using specific antibodies against Sp1, VEGF, and CD31. Representative photos of the stains are shown.
# Western blot analysis. Whole-cell lysates were prepared from human pancreatic cancer cell lines and tissues (23). Standard Western blotting was performed using polyclonal rabbit antibodies against human and mouse Sp1, VEGF, and EGFR (Santa Cruz Biotechnology, Santa Cruz, Calif.) and the anti-rabbit IgG antibody, a horseradish peroxidase-linked F(ab′)2 fragment obtained from a donkey (Amersham, Arlington Heights, Ill.). Equal protein-sample loading was monitored by probing the same membrane filter with antibodies against anti-β-actin or glyceraldehyde-3-phosphate dehydrogenase (GAPDH) (23). The probe proteins were detected using the Amersham enhanced chemiluminescence system according to the manufacturer's instructions.
# Immunohistochemical analysis and quantification of tumor MVD. For CD31 staining, frozen tissue sections (5 μm thick) were fixed in acetone. Endogenous peroxidase in the specimens was blocked using 3% hydrogen peroxide in phosphate-buffered saline (PBS) for 12 minutes. […] For quantification of tumor MVD, vessels on each section were counted in five high-power fields (magnification, ×200 [×20 objective and ×10 ocular]) as described previously (41). […]
# PANC-1 cells [1] = assay: PANC-1 subcutaneous xenograft, tumor volume and body weight; assay type: in vivo, nude mice; conditions: BVZ 25 μg, MIT 0.10 mg/kg, or B+M
# Method: FIG. 11. Synergistic antitumor effects of treatment with BVZ and MIT in xenograft models of human pancreatic cancer. […] C, representative tumor sizes in each group of BxPC3 model mice.
# Next, we performed experiments using both BxPC3 and PANC-1 tumor cell models in which we administered PBS, BVZ (25 μg), MIT (0.10 mg/kg), or B+M to a group of nude mice.
# [2] = test system: Sp1, EGFR, and VEGF protein expression; assay: Western blot of gene expression in PANC-1 cells in vitro; assay type: cell-based, human; conditions: 100 μg/ml BVZ, 6 to 48 hours
# Method: FIG. 14. Effects of treatment with BVZ and MIT on the growth of and gene expression in human pancreatic cancer cells in vitro. (A) BxPC3 and (B) PANC-1 cells were incubated for 1 to 5 days in a medium alone or a medium containing 100 μg/ml BVZ. The viable cells were counted every 24 hours. C, PANC-1 cells were incubated for 6 to 48 hours in a medium alone or a medium containing 100 μg/ml BVZ. Total protein lysates were harvested from the cell cultures, and the level of Sp1, EGFR, and VEGF protein expression was determined using Western blot analysis. Equal protein-sample loading was monitored by probing the same membrane filter with an anti-glyceraldehyde-3-phosphate dehydrogenase antibody (GAPDH). […] (D) Cytotoxicity was assessed using the MTT assay, and (E) the level of gene expression was determined using Western blot analysis. NS, nonspecific.
# Western blot analysis. Whole-cell lysates were prepared from human pancreatic cancer cell lines and tissues (23). […] Equal protein-sample loading was monitored by probing the same membrane filter with antibodies against anti-β-actin or glyceraldehyde-3-phosphate dehydrogenase (GAPDH) (23). The probe proteins were detected using the Amersham enhanced chemiluminescence system according to the manufacturer's instructions. […]
# PANC-1 cells [3] = assay: Viable cell count in vitro, PANC-1; assay type: cell-based, human; conditions: 100 μg/ml BVZ
# Method: FIG. 14. Effects of treatment with BVZ and MIT on the growth of and gene expression in human pancreatic cancer cells in vitro. (A) BxPC3 and (B) PANC-1 cells were incubated for 1 to 5 days in a medium alone or a medium containing 100 μg/ml BVZ. The viable cells were counted every 24 hours. C, PANC-1 cells were incubated for 6 to 48 hours in a medium alone or a medium containing 100 μg/ml BVZ. Total protein lysates were harvested from the cell cultures, and the level of Sp1, EGFR, and VEGF protein expression was determined using Western blot analysis. Equal protein-sample loading was monitored by probing the same membrane filter with an anti-glyceraldehyde-3-phosphate dehydrogenase antibody (GAPDH). D and E, PANC-1 cells were treated with MIT at concentrations ranging from 0.1 to 1.2 μM for 24 and 48 hours. (D) Cytotoxicity was assessed using the MTT assay, and (E) the level of gene expression was determined using Western blot analysis. NS, nonspecific.
# Effects of treatment with BVZ and MIT on the growth of and gene expression in human pancreatic cancer cells. To further determine whether treatment with BVZ directly impacts gene expression in pancreatic cancer cells, we incubated PANC-1 and BxPC3 cells in a medium alone or a medium containing 100 μg/ml BVZ for 6 to 48 hours.
substance,measurement,setting,value
bevacizumab [BVZ],MVD,"Sp1, VEGF, CD31 (MVD); CD31 staining, low-dose BVZ or MIT alone",did not significantly reduce MVD
same,"expression of platelet-derived growth factor, IGF-R, and EGFR in tumor tissue","Sp1, VEGF, CD31 (MVD); Western blot, data not shown",upregulated the expression of other proangiogenic molecules
same,Sp1 and VEGF expression in tumor tissue,"Sp1, VEGF, CD31 (MVD); Western blot, mice treated with PBS, BVZ, MIT, or B+M (low doses)",increased expression of Sp1 and its downstream molecule VEGF
same,antitumor activity at low dose,PANC-1 cells [1],marginal antitumor activity
same,"expression of Sp1, VEGF and EGFR",[2],did not affect the expression of Sp1 or its major downstream molecules
same,cell growth in vitro,PANC-1 cells [3],did not affect the growth
